Results on three compounds are retold here after PMC3423084 (Circulation, 2012).

SMILES strings stand for the structures.

The conditions of data set [1]: human, ref Kosoglou, 2012 #2596, cited from earlier work.
For data set [2], the system named is guinea pigs. The experiment in a line: Guinea pig carotid artery FeCl3 injury arterial thrombosis model. In kind it is in vivo. The settings on record: clopidogrel 1 mg/kg PO 4 h prior alone, 90 min period, n=5.
Data set [3] has as its target T1, PAR1 (Cavia porcellus, UniProt A0A286XH07).
T1 sequence (A0A286XH07 24-426): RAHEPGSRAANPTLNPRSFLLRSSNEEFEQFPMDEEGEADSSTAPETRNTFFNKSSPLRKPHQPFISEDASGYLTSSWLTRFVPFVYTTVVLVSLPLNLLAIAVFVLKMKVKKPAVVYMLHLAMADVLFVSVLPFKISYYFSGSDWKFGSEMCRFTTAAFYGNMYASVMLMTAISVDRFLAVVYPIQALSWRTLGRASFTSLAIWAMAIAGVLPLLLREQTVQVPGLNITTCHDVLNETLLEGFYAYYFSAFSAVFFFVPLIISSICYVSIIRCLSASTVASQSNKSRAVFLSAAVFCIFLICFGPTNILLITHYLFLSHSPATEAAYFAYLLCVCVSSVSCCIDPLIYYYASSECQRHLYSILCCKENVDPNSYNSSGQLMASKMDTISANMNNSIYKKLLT
The experiment in a line: Activation of guinea pig platelets. In kind it is cell-based.

On to `CCOC(=O)N[C@@H]1CC[C@@H]2[C@@H](C1)C[C@H]1C(=O)O[C@H](C)[C@H]1[C@H]2/C=C/c1ccc(-c2cccc(F)c2)cn1` [vorapaxar], for which the “Pharmacodynamic (PD) half life / duration of inhibition of platelet function” value in data set [1] (single loading dose) is on record as “up to 3 weeks”. Besides, the Plasma half-life in data set [1] is 120 to 264 h.

In the case of `COC(=O)[C@H](c1ccccc1Cl)N1CCc2sccc2C1` [clopidogrel], in data set [2], the “Protection against arterial occlusion when used alone” value is “non-significant protection”.

Usually EC50 stands for the midpoint of the concentration-response curve. A lower EC50 goes with an effect from little substance. For the compound `CC(C)C[C@H](NC(=O)[C@H](CC(C)C)NC(=O)[C@H](Cc1ccccc1)NC(=O)[C@@H](N)CO)C(=O)N[C@@H](CCCN=C(N)N)C(=O)N[C@@H](CC(N)=O)C(=O)O` [SFLLRN], the EC50 in data set [3] came out at 2500 nM.
